Assay results: paper PMC4076210, “Discovery of Novel AKT Inhibitors with Enhanced Anti-Tumor Effects in Combination with the MEK Inhibitor” (PLoS ONE, 2014)
Read-outs that look alike come from different tables or passages of the source.

Key:
Assay in all cases: Kinase panel
Format in all cases: biochemical
[1] = biological target: T1, IKKα(h) (Homo sapiens, UniProt O15111)
T1 construct: purchased Millipore KinaseProfiler
T1 sequence (O15111 1-745): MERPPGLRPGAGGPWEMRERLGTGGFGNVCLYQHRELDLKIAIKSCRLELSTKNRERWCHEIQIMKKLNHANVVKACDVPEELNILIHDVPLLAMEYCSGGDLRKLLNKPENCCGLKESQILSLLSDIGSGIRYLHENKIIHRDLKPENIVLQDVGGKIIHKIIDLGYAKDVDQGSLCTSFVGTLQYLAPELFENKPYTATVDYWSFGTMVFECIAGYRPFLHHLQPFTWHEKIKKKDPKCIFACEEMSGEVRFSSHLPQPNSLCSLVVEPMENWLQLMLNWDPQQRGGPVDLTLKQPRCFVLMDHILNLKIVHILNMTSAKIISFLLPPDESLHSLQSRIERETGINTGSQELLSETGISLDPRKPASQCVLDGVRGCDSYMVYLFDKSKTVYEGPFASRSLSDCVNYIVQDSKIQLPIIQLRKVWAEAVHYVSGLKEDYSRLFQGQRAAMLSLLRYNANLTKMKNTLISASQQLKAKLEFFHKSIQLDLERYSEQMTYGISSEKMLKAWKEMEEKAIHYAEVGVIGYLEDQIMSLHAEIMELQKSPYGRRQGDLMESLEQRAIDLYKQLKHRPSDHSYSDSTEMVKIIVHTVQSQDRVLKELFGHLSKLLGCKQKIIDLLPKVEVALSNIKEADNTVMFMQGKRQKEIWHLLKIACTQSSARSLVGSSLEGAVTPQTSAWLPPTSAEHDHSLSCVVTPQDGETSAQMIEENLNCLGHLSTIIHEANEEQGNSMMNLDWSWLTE

[2] = biological target: T2, EphA1(h) (Homo sapiens, UniProt P21709)
T2 construct: purchased Millipore KinaseProfiler
T2 sequence (P21709 26-976): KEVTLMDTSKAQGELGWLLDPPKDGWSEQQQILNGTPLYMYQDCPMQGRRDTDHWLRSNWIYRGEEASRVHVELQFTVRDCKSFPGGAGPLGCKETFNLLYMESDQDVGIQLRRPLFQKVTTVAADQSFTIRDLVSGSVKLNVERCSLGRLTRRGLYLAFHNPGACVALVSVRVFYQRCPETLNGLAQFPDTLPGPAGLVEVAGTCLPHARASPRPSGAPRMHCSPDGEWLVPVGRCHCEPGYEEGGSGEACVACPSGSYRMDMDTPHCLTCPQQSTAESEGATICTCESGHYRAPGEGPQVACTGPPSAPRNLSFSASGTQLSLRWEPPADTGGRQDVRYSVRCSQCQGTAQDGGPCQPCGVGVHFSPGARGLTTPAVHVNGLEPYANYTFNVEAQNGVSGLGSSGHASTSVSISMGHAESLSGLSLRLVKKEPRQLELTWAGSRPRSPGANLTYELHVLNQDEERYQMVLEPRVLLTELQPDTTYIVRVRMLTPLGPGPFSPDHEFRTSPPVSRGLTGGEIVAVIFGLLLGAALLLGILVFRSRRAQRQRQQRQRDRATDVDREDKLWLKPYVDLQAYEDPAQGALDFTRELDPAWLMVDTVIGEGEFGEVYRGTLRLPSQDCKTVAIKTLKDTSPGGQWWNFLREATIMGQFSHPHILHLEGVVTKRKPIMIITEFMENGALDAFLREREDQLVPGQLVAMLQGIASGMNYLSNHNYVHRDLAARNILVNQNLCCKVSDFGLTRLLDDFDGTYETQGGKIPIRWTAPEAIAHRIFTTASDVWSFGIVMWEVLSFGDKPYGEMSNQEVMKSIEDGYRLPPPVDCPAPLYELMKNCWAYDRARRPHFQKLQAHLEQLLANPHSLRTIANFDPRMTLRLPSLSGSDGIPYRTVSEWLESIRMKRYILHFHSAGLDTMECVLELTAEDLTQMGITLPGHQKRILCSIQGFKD

[3] = biological target: T3, MEK1(h) (Homo sapiens, UniProt Q02750)
T3 construct: purchased Millipore KinaseProfiler

[4] = biological target: T4, SAPK4(h) (Homo sapiens, UniProt O15264)
T4 construct: purchased Millipore KinaseProfiler
T4 sequence (O15264 1-365): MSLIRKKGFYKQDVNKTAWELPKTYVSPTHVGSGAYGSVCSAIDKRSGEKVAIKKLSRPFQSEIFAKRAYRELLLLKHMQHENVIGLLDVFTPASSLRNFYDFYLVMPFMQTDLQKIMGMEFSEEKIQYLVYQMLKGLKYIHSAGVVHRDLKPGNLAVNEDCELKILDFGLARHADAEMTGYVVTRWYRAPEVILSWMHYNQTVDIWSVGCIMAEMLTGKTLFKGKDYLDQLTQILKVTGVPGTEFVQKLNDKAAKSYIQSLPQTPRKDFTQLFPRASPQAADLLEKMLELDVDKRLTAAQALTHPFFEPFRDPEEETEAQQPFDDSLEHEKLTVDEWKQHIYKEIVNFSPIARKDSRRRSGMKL

[5] = biological target: T5, IGF-1R(h) (Homo sapiens, UniProt P08069)
T5 construct: purchased Millipore KinaseProfiler

[6] = biological target: T6, Fes(h) (Homo sapiens, UniProt P07332)
T6 construct: purchased Millipore KinaseProfiler

[7] = biological target: T7, NEK6(h) (Homo sapiens, UniProt Q9HC98)
T7 construct: purchased Millipore KinaseProfiler

[8] = biological target: T8, IRR(h) (Homo sapiens, UniProt P14616)
T8 construct: purchased Millipore KinaseProfiler

[9] = biological target: T9, p70S6K(h) (Homo sapiens, UniProt P23443)
T9 construct: purchased Millipore KinaseProfiler

[10] = biological target: T10, Flt4(h) (Homo sapiens, UniProt P35916)
T10 construct: purchased Millipore KinaseProfiler

[11] = biological target: T11, BTK(h) (Homo sapiens, UniProt Q06187)
T11 construct: purchased Millipore KinaseProfiler
T11 sequence (Q06187 whole entry): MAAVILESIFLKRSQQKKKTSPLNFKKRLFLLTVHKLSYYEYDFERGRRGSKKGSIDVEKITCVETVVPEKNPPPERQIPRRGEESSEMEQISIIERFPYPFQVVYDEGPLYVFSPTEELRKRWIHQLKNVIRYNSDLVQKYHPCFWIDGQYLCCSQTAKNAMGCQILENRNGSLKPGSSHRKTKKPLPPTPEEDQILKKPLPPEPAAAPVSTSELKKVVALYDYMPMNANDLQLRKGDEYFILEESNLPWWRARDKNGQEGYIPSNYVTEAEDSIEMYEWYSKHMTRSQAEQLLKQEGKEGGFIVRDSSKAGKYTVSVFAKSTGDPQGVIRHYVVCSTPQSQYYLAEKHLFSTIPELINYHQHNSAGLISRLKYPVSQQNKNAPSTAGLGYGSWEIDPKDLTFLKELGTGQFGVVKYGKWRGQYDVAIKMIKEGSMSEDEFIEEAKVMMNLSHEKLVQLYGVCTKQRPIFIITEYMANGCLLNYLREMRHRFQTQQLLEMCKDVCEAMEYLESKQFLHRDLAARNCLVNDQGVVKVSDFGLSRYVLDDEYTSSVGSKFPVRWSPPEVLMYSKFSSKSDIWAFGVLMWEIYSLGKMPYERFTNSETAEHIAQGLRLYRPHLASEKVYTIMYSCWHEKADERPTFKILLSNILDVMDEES

T10 sequence (P35916 25-1363): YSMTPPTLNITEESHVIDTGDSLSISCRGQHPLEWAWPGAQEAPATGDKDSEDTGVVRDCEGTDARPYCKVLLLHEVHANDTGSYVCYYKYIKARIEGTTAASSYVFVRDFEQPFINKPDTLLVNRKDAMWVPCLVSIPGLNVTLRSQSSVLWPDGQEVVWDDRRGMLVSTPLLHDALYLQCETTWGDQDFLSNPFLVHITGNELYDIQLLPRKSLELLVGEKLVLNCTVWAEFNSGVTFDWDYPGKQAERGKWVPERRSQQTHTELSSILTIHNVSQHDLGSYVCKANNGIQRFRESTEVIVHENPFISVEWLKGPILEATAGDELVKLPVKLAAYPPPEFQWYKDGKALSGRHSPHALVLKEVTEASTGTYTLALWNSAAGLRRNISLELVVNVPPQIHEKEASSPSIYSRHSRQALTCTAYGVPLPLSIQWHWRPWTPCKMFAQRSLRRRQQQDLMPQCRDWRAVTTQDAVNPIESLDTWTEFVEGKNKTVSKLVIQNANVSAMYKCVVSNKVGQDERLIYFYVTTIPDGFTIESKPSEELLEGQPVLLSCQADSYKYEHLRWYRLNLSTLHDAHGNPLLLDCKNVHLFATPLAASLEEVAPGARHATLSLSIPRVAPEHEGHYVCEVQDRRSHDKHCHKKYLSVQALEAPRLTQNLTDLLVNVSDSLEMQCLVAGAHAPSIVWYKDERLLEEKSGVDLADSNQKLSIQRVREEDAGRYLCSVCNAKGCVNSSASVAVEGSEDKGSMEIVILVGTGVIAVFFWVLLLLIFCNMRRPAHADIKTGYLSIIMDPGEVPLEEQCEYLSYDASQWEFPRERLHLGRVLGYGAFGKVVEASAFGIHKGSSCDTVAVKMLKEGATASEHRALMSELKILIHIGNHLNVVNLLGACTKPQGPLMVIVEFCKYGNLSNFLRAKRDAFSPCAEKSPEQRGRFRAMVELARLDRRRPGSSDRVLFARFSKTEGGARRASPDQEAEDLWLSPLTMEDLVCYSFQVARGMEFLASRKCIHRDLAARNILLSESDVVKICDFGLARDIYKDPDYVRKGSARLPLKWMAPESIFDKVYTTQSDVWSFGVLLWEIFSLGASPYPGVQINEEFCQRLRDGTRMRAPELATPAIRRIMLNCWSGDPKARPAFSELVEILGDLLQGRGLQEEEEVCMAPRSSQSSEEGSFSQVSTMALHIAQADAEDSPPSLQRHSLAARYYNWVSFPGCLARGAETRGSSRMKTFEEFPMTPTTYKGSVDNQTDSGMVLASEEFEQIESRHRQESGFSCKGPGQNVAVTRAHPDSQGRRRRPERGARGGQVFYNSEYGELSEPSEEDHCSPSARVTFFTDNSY
T5 sequence (P08069 31-1367): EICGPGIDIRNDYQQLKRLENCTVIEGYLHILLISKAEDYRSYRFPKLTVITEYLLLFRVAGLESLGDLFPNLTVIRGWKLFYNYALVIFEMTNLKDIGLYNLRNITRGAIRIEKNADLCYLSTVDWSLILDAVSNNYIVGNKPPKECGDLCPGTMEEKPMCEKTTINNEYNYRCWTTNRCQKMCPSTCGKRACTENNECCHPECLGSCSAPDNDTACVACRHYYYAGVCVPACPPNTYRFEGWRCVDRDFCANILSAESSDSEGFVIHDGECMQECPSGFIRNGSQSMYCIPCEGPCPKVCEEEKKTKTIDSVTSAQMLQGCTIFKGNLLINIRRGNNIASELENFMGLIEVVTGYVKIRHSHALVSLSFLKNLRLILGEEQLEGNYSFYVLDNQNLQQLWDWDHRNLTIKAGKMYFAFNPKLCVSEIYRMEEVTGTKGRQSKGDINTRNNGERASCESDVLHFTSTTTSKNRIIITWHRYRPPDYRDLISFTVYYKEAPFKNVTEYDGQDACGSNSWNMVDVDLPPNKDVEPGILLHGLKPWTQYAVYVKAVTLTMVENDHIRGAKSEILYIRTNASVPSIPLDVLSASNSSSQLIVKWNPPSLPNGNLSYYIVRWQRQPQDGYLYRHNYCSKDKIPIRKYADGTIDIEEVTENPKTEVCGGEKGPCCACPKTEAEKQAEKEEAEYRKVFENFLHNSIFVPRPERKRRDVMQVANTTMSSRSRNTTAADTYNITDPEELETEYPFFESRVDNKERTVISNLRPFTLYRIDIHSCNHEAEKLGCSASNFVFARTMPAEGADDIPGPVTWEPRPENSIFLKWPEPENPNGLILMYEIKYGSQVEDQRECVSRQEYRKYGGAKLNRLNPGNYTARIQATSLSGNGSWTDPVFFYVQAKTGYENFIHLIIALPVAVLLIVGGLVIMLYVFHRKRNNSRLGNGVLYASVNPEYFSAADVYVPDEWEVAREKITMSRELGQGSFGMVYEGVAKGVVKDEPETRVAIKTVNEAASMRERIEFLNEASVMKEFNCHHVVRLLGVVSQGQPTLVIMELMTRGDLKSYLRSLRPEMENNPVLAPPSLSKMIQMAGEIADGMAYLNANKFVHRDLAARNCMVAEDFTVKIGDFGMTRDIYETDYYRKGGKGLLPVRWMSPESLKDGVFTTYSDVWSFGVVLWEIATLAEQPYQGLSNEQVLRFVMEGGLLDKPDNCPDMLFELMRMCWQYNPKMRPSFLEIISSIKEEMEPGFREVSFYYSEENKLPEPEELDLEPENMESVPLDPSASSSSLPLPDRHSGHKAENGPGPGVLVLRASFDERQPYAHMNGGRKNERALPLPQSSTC
T3 sequence (Q02750 whole entry): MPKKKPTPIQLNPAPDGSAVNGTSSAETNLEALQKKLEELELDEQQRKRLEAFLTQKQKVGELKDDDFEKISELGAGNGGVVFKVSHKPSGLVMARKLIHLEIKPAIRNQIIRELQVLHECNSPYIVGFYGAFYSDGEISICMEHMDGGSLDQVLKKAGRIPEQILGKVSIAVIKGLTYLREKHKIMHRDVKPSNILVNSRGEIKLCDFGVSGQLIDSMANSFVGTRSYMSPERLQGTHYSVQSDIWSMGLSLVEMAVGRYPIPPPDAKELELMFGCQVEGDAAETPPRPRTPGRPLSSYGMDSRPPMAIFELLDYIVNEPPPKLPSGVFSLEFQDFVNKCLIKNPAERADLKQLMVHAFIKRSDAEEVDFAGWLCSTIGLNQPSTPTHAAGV
T6 sequence (P07332 whole entry): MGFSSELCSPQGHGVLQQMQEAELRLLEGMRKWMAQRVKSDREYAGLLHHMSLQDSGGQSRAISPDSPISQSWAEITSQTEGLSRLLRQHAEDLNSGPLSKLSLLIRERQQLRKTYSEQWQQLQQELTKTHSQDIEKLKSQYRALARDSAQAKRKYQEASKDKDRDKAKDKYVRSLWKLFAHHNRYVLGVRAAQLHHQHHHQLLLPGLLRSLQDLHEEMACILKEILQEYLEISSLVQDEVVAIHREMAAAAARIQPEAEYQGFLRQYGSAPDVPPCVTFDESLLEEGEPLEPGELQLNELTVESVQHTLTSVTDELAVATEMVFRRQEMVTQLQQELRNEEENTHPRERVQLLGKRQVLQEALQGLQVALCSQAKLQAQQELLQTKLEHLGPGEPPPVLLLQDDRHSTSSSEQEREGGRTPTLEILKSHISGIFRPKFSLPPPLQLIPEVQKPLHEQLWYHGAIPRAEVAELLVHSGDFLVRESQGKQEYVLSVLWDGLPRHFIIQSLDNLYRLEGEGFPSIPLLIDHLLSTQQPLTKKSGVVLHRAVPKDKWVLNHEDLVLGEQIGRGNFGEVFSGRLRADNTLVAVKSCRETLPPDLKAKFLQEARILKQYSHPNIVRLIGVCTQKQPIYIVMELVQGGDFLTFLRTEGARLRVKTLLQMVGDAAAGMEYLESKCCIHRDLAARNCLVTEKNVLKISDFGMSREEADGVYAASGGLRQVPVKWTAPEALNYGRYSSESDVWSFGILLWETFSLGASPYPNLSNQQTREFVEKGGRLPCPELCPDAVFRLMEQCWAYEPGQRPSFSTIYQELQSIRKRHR
T9 sequence (P23443 whole entry): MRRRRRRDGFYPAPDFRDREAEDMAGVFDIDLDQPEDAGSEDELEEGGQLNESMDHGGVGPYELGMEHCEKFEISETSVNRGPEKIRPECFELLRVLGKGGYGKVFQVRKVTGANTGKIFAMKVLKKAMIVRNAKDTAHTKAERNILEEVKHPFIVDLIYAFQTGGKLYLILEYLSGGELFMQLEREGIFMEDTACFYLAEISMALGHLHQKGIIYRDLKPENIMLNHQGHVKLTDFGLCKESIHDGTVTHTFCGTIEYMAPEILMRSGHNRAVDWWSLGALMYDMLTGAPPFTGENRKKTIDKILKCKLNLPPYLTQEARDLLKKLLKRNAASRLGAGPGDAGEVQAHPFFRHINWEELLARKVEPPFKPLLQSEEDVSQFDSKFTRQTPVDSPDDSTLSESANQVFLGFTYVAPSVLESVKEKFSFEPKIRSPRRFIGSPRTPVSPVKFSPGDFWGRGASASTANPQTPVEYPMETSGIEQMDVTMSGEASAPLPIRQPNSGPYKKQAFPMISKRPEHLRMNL

Cn1ncc(Cl)c1-c1cc(C(=O)N[C@H](CN)Cc2cccc(F)c2)sc1Cl [GSK2110183]
inhibition at 0.5 µM [1]: 9%
inhibition at 10 µM [1]: 8%
inhibition at 0.5 µM [2]: -14%
inhibition at 10 µM [2]: -5%
inhibition at 0.5 µM [3]: -1%
inhibition at 10 µM [3]: 24%
inhibition at 0.5 µM [4]: 3%
inhibition at 10 µM [4]: 64%
inhibition at 0.5 µM [5]: 7%
inhibition at 10 µM [5]: 25%
inhibition at 0.5 µM [6]: 9%
inhibition at 10 µM [6]: 48%
inhibition at 0.5 µM [7]: -25%
inhibition at 10 µM [7]: -11%
inhibition at 0.5 µM [8]: -11%
inhibition at 10 µM [8]: -8%
inhibition at 0.5 µM [9]: 78%
inhibition at 10 µM [9]: 97%
inhibition at 0.5 µM [10]: 4%
inhibition at 10 µM [10]: 21%
inhibition at 0.5 µM [11]: 2%
inhibition at 10 µM [11]: 4%

Cn1ncc(Cl)c1-c1cc(C(=O)N[C@H](CN)Cc2ccc(F)c(F)c2)oc1Cl [GSK2141795]
inhibition at 0.5 µM ([1]; 0.5 µM, read-out: % Inhibition): -12%
inhibition at 10 µM ([1]; 10 µM, read-out: % Inhibition): 6%
inhibition at 0.5 µM ([2]; 0.5 µM, read-out: % Inhibition): 4%
inhibition at 10 µM ([2]; 10 µM, read-out: % Inhibition): 53%
inhibition at 0.5 µM ([3]; 0.5 µM, read-out: % Inhibition): 0%
inhibition at 10 µM ([3]; 10 µM, read-out: % Inhibition): 26%
inhibition at 0.5 µM ([4]; 0.5 µM, read-out: % Inhibition): -9%
inhibition at 10 µM ([4]; 10 µM, read-out: % Inhibition): 54%
inhibition at 0.5 µM ([5]; 0.5 µM, read-out: % Inhibition): 6%
inhibition at 10 µM ([5]; 10 µM, read-out: % Inhibition): 31%
inhibition at 0.5 µM ([6]; 0.5 µM, read-out: % Inhibition): 0%
inhibition at 10 µM ([6]; 10 µM, read-out: % Inhibition): 80%
inhibition at 0.5 µM ([7]; 0.5 µM, read-out: % Inhibition): -17%
inhibition at 10 µM ([7]; 10 µM, read-out: % Inhibition): -22%
inhibition at 0.5 µM ([8]; 0.5 µM, read-out: % Inhibition): -16%
inhibition at 10 µM ([8]; 10 µM, read-out: % Inhibition): -11%
inhibition at 0.5 µM ([9]; 0.5 µM, read-out: % Inhibition): 88%
inhibition at 10 µM ([9]; 10 µM, read-out: % Inhibition): 98%
inhibition at 0.5 µM ([10]; 0.5 µM, read-out: % Inhibition): -6%
inhibition at 10 µM ([10]; 10 µM, read-out: % Inhibition): 23%
inhibition at 0.5 µM ([11]; 0.5 µM, read-out: % Inhibition): 7%
inhibition at 10 µM ([11]; 10 µM, read-out: % Inhibition): 6%
